Patent US5977102A, “Pyrimido [5, 4-d] pyrimidines, pharmaceuticals containing these compounds, their use and processes for their preparation” (Dr. Karl Thomae GmbH, priority 1996, dated 1999)

Legend:
Assay type in all cases: cell-based
human EGF-R = target: T1, human EGF-R (Homo sapiens, UniProt P00533); experiment: Inhibition of EGF-dependent proliferation of F/L-HERc cells; settings: EGF (20 ng/ml), 48 hours
T1 construct: expressed in transfected cells; host or cells: F/L-HERc: murine IL-3-dependent FDC-P1 cells infected with recombinant retrovirus (vector LXSN, packaging line GP+E86) carrying human EGF-R cDNA
T1 sequence (P00533 25-1210): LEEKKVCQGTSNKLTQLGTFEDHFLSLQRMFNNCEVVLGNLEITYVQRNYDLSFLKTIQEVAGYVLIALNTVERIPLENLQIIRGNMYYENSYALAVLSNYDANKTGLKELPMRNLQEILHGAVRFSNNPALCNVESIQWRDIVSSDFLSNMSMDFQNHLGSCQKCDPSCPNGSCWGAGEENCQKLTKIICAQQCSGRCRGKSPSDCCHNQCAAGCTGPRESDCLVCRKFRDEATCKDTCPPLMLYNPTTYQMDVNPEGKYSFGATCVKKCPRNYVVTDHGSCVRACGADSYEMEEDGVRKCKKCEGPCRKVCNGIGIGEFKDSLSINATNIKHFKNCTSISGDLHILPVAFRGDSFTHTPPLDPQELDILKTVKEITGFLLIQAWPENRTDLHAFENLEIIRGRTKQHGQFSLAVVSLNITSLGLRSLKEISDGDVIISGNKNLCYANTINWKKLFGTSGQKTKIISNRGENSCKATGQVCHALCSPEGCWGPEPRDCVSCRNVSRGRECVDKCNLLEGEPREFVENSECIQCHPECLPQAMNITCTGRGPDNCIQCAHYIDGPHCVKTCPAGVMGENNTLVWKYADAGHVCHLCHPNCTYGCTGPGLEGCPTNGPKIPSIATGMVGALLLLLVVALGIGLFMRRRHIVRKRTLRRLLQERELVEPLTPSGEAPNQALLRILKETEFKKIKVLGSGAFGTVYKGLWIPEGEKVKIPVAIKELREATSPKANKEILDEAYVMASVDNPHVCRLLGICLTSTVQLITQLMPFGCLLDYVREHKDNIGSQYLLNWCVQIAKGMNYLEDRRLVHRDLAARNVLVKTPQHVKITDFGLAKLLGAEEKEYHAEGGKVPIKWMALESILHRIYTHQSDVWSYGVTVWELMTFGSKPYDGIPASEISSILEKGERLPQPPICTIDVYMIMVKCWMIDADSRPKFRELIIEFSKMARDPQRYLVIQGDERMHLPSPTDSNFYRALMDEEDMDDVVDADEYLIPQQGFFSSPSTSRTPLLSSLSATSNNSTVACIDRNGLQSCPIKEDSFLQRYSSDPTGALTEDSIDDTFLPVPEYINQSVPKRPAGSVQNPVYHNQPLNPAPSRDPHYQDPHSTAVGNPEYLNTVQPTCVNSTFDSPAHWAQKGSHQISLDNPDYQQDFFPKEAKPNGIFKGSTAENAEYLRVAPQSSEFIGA
Text: (§1) In this case, an interleukin-3 (IL-3)-dependent cell line of murine origin was used and was genetically modified in such a way that it expresses functional human EGF-R. Proliferation of these cells, which are called F/L-HERc, can therefore be stimulated either by murine IL-3 or by EGF (see von Ruden, T. et al. in EMBO J. 7, 2749-2756 (1988) and Pierce, J. H. et al. in Science 239, 628-631 (1988)).
(§2) The starting material for the F/L-HERc cells was the cell line FDC-P1,whose preparation has been described by Dexter, T. M. et al. in J. Exp. Med. 152, 1036-1047 (1980). However, it is also possible as an alternative to use other growth factor-dependent cells (see, for example, Pierce, J. H. et al. in Science 239, 628-631 (1988), Shibuya, H. et al. in Cell 70, 57-67 (1992) and Alexander, W. S. et al. in EMBO J. 10, 3683-3691 (1991)). Recombinant retroviruses as described in von Ruden, T. et al., EMBO J. 7, 2749-2756 (1988) were used for expression of the human EGF-R cDNA (see Ullrich, A. et al. in Nature 309, 418-425 (1984)) with the difference that the retroviral vector LXSN (see Miller, A. D. et al. in BioTechniques 7, 980-990 (1989)) was employed for expression of the EGF-R cDNA, and the line GP+E86 (see Markowitz, D. et al. in J. Virol. 62, 1120-1124 (1988)) was used as packaging cell.
(§3) The test was carried out as follows:
(§4) F/L-HERc cells were cultivated in RPMI/1640 medium (BioWhittaker), supplemented with 10% fetal calf serum (FCS, Boehringer Mannheim), 2 mM glutamine (BioWhittaker), standard antibiotics and 20 ng/ml human EGF (Promega), at 37° C. and 5% CO2. To investigate the inhibitory activity of the compounds according to the invention, 1.5×10^4 cells were cultivated in the above medium (200 μl) per well in triplicates in 96-well plates, stimulating proliferation of the cells either with EGF (20 ng/ml) or with murine IL-3. The source used for IL-3 was culture supernatants from the cell line X63/0 mIL-3 (see Karasuyama, H. et al. in Eur. J. Immunol. 18, 97-104 (1988)). The compounds according to the invention were dissolved in 100% dimethyl sulphoxide (DMSO) and added in various dilutions to the cultures, with the maximum DMSO concentration being 1%. The cultures were incubated at 37° C. for 48 hours.
(§5) To determine the inhibitory activity of the compounds according to the invention, the relative cell count was measured in O.D. units using the Cell Titre 96™ AQueous Non-Radioactive Cell Proliferation Assay (Promega). The relative cell count was calculated as a per cent of the control (F/L-HERc cells without inhibitor), and the concentration of active substance which inhibits the proliferation of the cells by 50% (IC50) was inferred.

F/L-HERc cells = experiment: Inhibition of IL-3-dependent proliferation of F/L-HERc cells; settings: Mus musculus, murine IL-3, 48 hours
Text: as §1, §2, §3, §4, §5

[1] = test system: human tumour cell line KB; experiment: Inhibition of EGF/TGF-alpha-stimulated KB cell proliferation ([3H]-thymidine incorporation); settings: KB cells, TGF-alpha [10 ng/ml] or EGF [20 ng/ml], 60 hours, then [3H]-thymidine 16-18 h
Procedure: To do this, the cells were washed twice and 1500 cells per well were plated out in a 96-well plate in 200 μl of IMDM (BioWhittaker) without serum in the presence of 50 μM mercaptoethanol, standard antibiotics, TGF-alpha [10 ng/ml] or EGF [20 ng/ml] and of various concentrations of the substances according to the invention (triplicates, maximum DMSO concentration 1%, see proliferation test with F/L-HERc cells). After 60 hours, [^3 H]-thymidine (0.1 μCi in 10 μl) was added for about 16-18 h.

Row | IC50 (human EGF-R) [nM] | IC50 [1] [nM] | Compound | IC50 (F/L-HERc cells) [µM]
1 | 40 |  | O=C(CN1CCN(c2ncc3ncnc(Nc4ccc(F)c(Cl)c4)c3n2)CC1)N1CCOCC1 [2(5), 4-[(3-chloro-4-fluorophenyl)amino]-6-[4-(morpholinocarbonylmethyl)-1-piperazinyl]pyrimido[5,4-d]pyrimidine] | > 10
2 | 175 |  | Fc1ccc(Nc2ncnc3cnc(NCc4ccccn4)nc23)cc1Cl [2(7), 4-[(3-chloro-4-fluorophenyl)amino]-6-(2-picolylamino)pyrimido[5,4-d]pyrimidine] | > 1
3 | 15 |  | O=C(N1CCC(Nc2ncc3ncnc(Nc4ccc(F)c(Cl)c4)c3n2)CC1)C(F)(F)F [2(8), 4-[(3-chloro-4-fluorophenyl)amino]-6-[1-trifluoroacetyl-4-piperidinylamino]pyrimido[5,4-d]pyrimidine] | > 20
4 | 225 |  | Fc1ccc(Nc2ncnc3cnc(N4CCC(c5ccncc5)CC4)nc23)cc1Cl [2(9), 4-[(3-chloro-4-fluorophenyl)amino]-6-[4-(4-pyridyl)-1-piperidinyl]pyrimido[5,4-d]pyrimidine] | > 20
5 | 275 |  | Fc1ccc(Nc2ncnc3cnc(N4CCN(c5ccccn5)CC4)nc23)cc1Cl [2(10), 4-[(3-chloro-4-fluorophenyl)amino]-6-[4-(2-pyridyl)-1-piperazinyl]pyrimido[5,4-d]pyrimidine] | > 20
6 | 190 |  | NCc1cccc(CNc2ncc3ncnc(Nc4ccc(F)c(Cl)c4)c3n2)c1 [2(11), 4-[(3-chloro-4-fluorophenyl)amino]-6-[3-(aminomethyl)benzylamino]pyrimido[5,4-d]pyrimidine] | 
7 | 98 |  | NCc1ccc(CNc2ncc3ncnc(Nc4ccc(F)c(Cl)c4)c3n2)cc1 [2(12), 4-[(3-chloro-4-fluorophenyl)amino]-6-[4-(aminomethyl)benzylamino]pyrimido[5,4-d]pyrimidine] | 
8 | > 10000 |  | O[C@H]1CC[C@H](Nc2ncc3ncnc(Nc4ccc5c(c4)Cc4ccccc4-5)c3n2)CC1 [2(15), 4-[2-fluorenylamino]-6-(trans-4-hydroxycyclohexylamino)pyrimido[5,4-d]pyrimidine] | 
9 | 21 |  | c1nc(Nc2ccc3[nH]ccc3c2)c2nc(N3CCOCC3)ncc2n1 [Example 1, 4-(5-Indolylamino)-6-morpholinopyrimido[5,4-d]pyrimidine] | 10
10 | 3 | 100 | Fc1ccc(Nc2ncnc3cnc(NN4CCOCC4)nc23)cc1Cl [Example 2(6), 4-[(3-chloro-4-fluorophenyl)amino]-6-[(4-morpholinyl)amino]pyrimido[5,4-d]pyrimidine] | > 10
11 | 50 | 400 | Fc1ccc(Nc2ncnc3cnc(NCc4ccncc4)nc23)cc1Cl [Example 2, 4-[(3-Chloro-4-fluorophenyl)amino]-6-(4-picolylamino)pyrimido[5,4-d]pyrimidine] | > 1

Continued, compound first:

Row | Compound | IC50 (human EGF-R) [nM] | IC50 [1] [nM] | IC50 (F/L-HERc cells) [µM]
12 | c1cc(Nc2ncnc3cnc(N4CCOCC4)nc23)c2cccnc2c1 [1(1), 4-(5-quinolylamino)-6-morpholinopyrimido[5,4-d]pyrimidine] | 2000 |  | 10
13 | c1cnc2ccc(Nc3ncnc4cnc(N5CCOCC5)nc34)cc2c1 [1(2), 4-(6-quinolylamino)-6-morpholinopyrimido[5,4-d]pyrimidine] | 1000 |  | 
14 | c1cnc2c(Nc3ncnc4cnc(N5CCOCC5)nc34)cccc2c1 [1(3), 4-(8-quinolylamino)-6-morpholinopyrimido[5,4-d]pyrimidine] | 800 |  | 
15 | c1nc(Nc2ccc3[nH]ncc3c2)c2nc(N3CCOCC3)ncc2n1 [1(4), 4-(5-indazolylamino)-6-morpholinopyrimido[5,4-d]pyrimidine] | 125 |  | 
16 | c1cc(Nc2ncnc3cnc(N4CCOCC4)nc23)c2nsnc2c1 [1(5), 4-[4-(2,1,3-benzothiadiazolyl)amino]-6-morpholinopyrimido[5,4-d]pyrimidine] | 1000 |  | 
17 | c1cncc(Nc2ncnc3cnc(N4CCOCC4)nc23)c1 [1(9), 4-(3-pyridylamino)-6-morpholinopyrimido[5,4-d]pyrimidine] | 6000 |  | 
18 | c1cc(Nc2ncnc3cnc(N4CCOCC4)nc23)ccn1 [1(13), 4-(4-pyridylamino)-6-morpholinopyrimido[5,4-d]pyrimidine] | 10000 |  | 9
19 | c1cc2cc(Nc3ncnc4cnc(N5CCOCC5)nc34)ccc2cn1 [1(14), 4-(6-isoquinolylamino)-6-morpholinopyrimido[5,4-d]-pyrimidine] | 2300 |  | 2.2
20 | Clc1cccc(CNc2ncnc3cnc(N4CCOCC4)nc23)c1 [1(15), 4-(3-chlorobenzylamino)-6-morpholinopyrimido[5,4-d]-pyrimidine] | 1 |  | > 10
21 | c1ccc2c(c1)CCC(Nc1ncnc3cnc(NC4CC4)nc13)C2 (stereo not shown) [1(16), 4-(1,2,3,4-tetrahydro-2-naphthylamino)-6-cyclopropylaminopyrimido[5,4-d]pyrimidine] | 200 |  | 
22 | O[C@H]1CC[C@H](Nc2ncc3ncnc(Nc4ccc5[nH]ccc5c4)c3n2)CC1 [2(1), 4-(5-indolylamino)-6-[trans-(4-hydroxycyclohexyl)amino]pyrimido[5,4-d]pyrimidine] | 1 |  | > 10
23 | Cc1cccc(Nc2ncnc3cnc(-n4ccnc4)nc23)c1 [2(2), 4-[(3-methylphenyl)amino]-6-(1-imidazolyl)pyrimido-[5,4-d]pyrimidine] | 400 |  | 
24 | CN1CCC2(CC1)CN(c1ncc3ncnc(Nc4ccc(F)c(Cl)c4)c3n1)C2 [2(3), 4-[(3-chloro-4-fluorophenyl)amino]-6-(7-methyl-2,7-diazaspiro[3.5]-2-nonyl)pyrimido[5,4-d]pyrimidine] | 138 |  | > 10
25 | O=C(CN1CCN(c2ncc3ncnc(Nc4ccc(F)c(Cl)c4)c3n2)CC1)N1CCCC1 [2(4), 4-[(3-chloro-4-fluorophenyl)amino]-6-[4-(1-pyrrolidinylcarbonylmethyl)-1-piperazinyl]pyrimido[5,4-d]pyrimidine] | 200 |  | > 10
26 | CN1[C@@H]2CC[C@H]1C[C@@H](Nc1ncc3ncnc(Nc4ccc(F)c(Cl)c4)c3n1)C2 [2(18), 4-[(3-chloro-4-fluorophenyl)amino]-6-(endo-tropinylamino)pyrimido[5,4-d]pyrimidine] | 138 |  | > 10
27 | CN1[C@@H]2CC[C@H]1C[C@H](Nc1ncc3ncnc(Nc4ccc(F)c(Cl)c4)c3n1)C2 [2(19), 4-[(3-chloro-4-fluorophenyl)amino]-6-(exo-tropinylamino)pyrimido[5,4-d]pyrimidine] | 28 |  | > 10
